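Exposure lasted 48 hours, with cells grown in 96-well plates and compounds tested at five concentrations. The concentration for 50% growth inhibition is given as GI50.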 Active and inactive are the calls of the source. Rule as the data show it: active = GI50 up to about 1.1 µM and inactive = higher.
Columns and labels:
Experiment in all cases: NCI anticancer screen, dose series, 48 h
786-0 = test system: 786-0
A498 = test system: A498
A549 = test system: A549
ACHN = test system: ACHN
BT-549 = test system: BT-549
CAKI-1 = test system: CAKI-1
COLO 205 = test system: COLO 205
DU-145 = test system: DU-145
EKVX = test system: EKVX
HCC 2998 = test system: HCC 2998
HCT-116 = test system: HCT-116
HCT-15 = test system: HCT-15
HL-60 = test system: HL-60
HOP-62 = test system: HOP-62
HOP-92 = test system: HOP-92
HT-29 = test system: HT-29
Hs-578T = test system: Hs-578T
IGROV-1 = test system: IGROV-1
K562 = test system: K562
KM12 = test system: KM12
M14 = test system: M14
MCF7 = test system: MCF7
MDA-MB-231 = test system: MDA-MB-231
MDA-MB-435 = test system: MDA-MB-435
MDA-N = test system: MDA-N
MOLT-4 = test system: MOLT-4
Malme-3M = test system: Malme-3M
NCI-H226 = test system: NCI-H226
NCI-H23 = test system: NCI-H23
NCI-H460 = test system: NCI-H460
NCI-H522 = test system: NCI-H522
NCI/ADR-RES = test system: NCI/ADR-RES
OVCAR-3 = test system: OVCAR-3
OVCAR-4 = test system: OVCAR-4
OVCAR-5 = test system: OVCAR-5
OVCAR-8 = test system: OVCAR-8
PC-3 = test system: PC-3
RPMI-8226 = test system: RPMI-8226
RXF 393 = test system: RXF 393
SF-268 = test system: SF-268
SF-295 = test system: SF-295
SF-539 = test system: SF-539
SK-MEL-28 = test system: SK-MEL-28
SK-MEL-2 = test system: SK-MEL-2
SK-MEL-5 = test system: SK-MEL-5
SK-OV-3 = test system: SK-OV-3
SN12C = test system: SN12C
SNB-19 = test system: SNB-19
SNB-75 = test system: SNB-75
SW-620 = test system: SW-620
T47D = test system: T47D
TK-10 = test system: TK-10
U-251 = test system: U-251
UACC-257 = test system: UACC-257
UACC-62 = test system: UACC-62
UO-31 = test system: UO-31
CCRF-CEM = test system: CCRF-CEM
LOX IMVI = test system: LOX IMVI

## CN(C)CCC(C#N)(c1ccccc1)c1ccccc1
786-0
  GI50: > 100 µM (inactive)
A498
  GI50: 71.3 µM (inactive)
A549
  GI50: > 100 µM (inactive)
ACHN
  GI50: > 100 µM (inactive)
BT-549
  GI50: > 100 µM (inactive)
CAKI-1
  GI50: > 100 µM (inactive)
COLO 205
  GI50: 45.2 µM (inactive)
DU-145
  GI50: > 100 µM (inactive)
EKVX
  GI50: > 100 µM (inactive)
HCC 2998
  GI50: 17.5 µM (inactive)
HCT-116
  GI50: 72.6 µM (inactive)
HCT-15
  GI50: > 100 µM
HL-60
  GI50: 6.62 µM (inactive)
HOP-62
  GI50: > 100 µM (inactive)
HOP-92
  GI50: 12.3 µM (inactive)
HT-29
  GI50: 33.7 µM (inactive)
Hs-578T
  GI50: 93.5 µM (inactive)
IGROV-1
  GI50: 55.1 µM (inactive)
K562
  GI50: 4.06 µM (inactive)
KM12
  GI50: > 100 µM (inactive)
M14
  GI50: 25.9 µM (inactive)
MCF7
  GI50: 94.4 µM (inactive)
MDA-MB-231
  GI50: 47.5 µM (inactive)
MDA-MB-435
  GI50: > 100 µM (inactive)
MDA-N
  GI50: 45 µM (inactive)
MOLT-4
  GI50: 0.102 µM (active)
Malme-3M
  GI50: 35.1 µM (inactive)
NCI-H226
  GI50: > 100 µM (inactive)
NCI-H23
  GI50: > 100 µM (inactive)
NCI-H460
  GI50: > 100 µM (inactive)
NCI-H522
  GI50: 96.6 µM (inactive)
NCI/ADR-RES
  GI50: 93.5 µM (inactive)
OVCAR-3
  GI50: > 100 µM (inactive)
OVCAR-4
  GI50: > 100 µM (inactive)
OVCAR-5
  GI50: 79.6 µM (inactive)
OVCAR-8
  GI50: 96.2 µM (inactive)
PC-3
  GI50: 87.3 µM (inactive)
RPMI-8226
  GI50: 24.9 µM (inactive)
RXF 393
  GI50: 40 µM (inactive)
SF-268
  GI50: > 100 µM (inactive)
SF-295
  GI50: 90.6 µM (inactive)
SF-539
  GI50: > 100 µM (inactive)
SK-MEL-28
  GI50: 23.1 µM (inactive)
SK-MEL-2
  GI50: > 100 µM (inactive)
SK-MEL-5
  GI50: 24.7 µM (inactive)
SK-OV-3
  GI50: > 100 µM (inactive)
SN12C
  GI50: 72.4 µM (inactive)
SNB-19
  GI50: > 100 µM (inactive)
SNB-75
  GI50: 52.6 µM (inactive)
SW-620
  GI50: > 100 µM (inactive)
T47D
  GI50: 97.9 µM (inactive)
TK-10
  GI50: 60.1 µM (inactive)
U-251
  GI50: 88.9 µM (inactive)
UACC-257
  GI50: 24.4 µM (inactive)
UACC-62
  GI50: 73.3 µM (inactive)
UO-31
  GI50: 65.9 µM (inactive)

## COc1ccc(C2OC(N)=C(C#N)C3=C2CCCC3C)cc1OC (stereo not drawn)
786-0
  GI50: > 100 µM (inactive)
A498
  GI50: > 100 µM (inactive)
ACHN
  GI50: > 100 µM (inactive)
BT-549
  GI50: > 100 µM (inactive)
CAKI-1
  GI50: > 100 µM (inactive)
CCRF-CEM
  GI50: > 100 µM (inactive)
COLO 205
  GI50: > 100 µM (inactive)
DU-145
  GI50: > 100 µM (inactive)
EKVX
  GI50: > 100 µM (inactive)
HCT-116
  GI50: > 100 µM (inactive)
HCT-15
  GI50: > 100 µM
HL-60
  GI50: > 100 µM (inactive)
HT-29
  GI50: > 100 µM (inactive)
Hs-578T
  GI50: > 100 µM (inactive)
IGROV-1
  GI50: > 100 µM (inactive)
K562
  GI50: > 100 µM (inactive)
KM12
  GI50: > 100 µM (inactive)
LOX IMVI
  GI50: > 100 µM (inactive)
M14
  GI50: > 100 µM (inactive)
MCF7
  GI50: > 100 µM (inactive)
MDA-MB-231
  GI50: > 100 µM (inactive)
MDA-MB-435
  GI50: > 100 µM (inactive)
MDA-N
  GI50: > 100 µM (inactive)
MOLT-4
  GI50: > 100 µM (inactive)
Malme-3M
  GI50: > 100 µM (inactive)
NCI-H226
  GI50: > 100 µM (inactive)
NCI-H23
  GI50: > 100 µM (inactive)
NCI-H460
  GI50: > 100 µM (inactive)
NCI/ADR-RES
  GI50: > 100 µM (inactive)
OVCAR-3
  GI50: > 100 µM (inactive)
OVCAR-5
  GI50: > 100 µM (inactive)
OVCAR-8
  GI50: > 100 µM (inactive)
PC-3
  GI50: > 100 µM (inactive)
RPMI-8226
  GI50: > 100 µM (inactive)
RXF 393
  GI50: > 100 µM (inactive)
SF-268
  GI50: > 100 µM (inactive)
SF-295
  GI50: > 100 µM (inactive)
SF-539
  GI50: > 100 µM (inactive)
SK-MEL-28
  GI50: > 100 µM (inactive)
SK-MEL-2
  GI50: > 100 µM (inactive)
SK-MEL-5
  GI50: > 100 µM (inactive)
SK-OV-3
  GI50: > 100 µM (inactive)
SN12C
  GI50: > 100 µM (inactive)
SNB-19
  GI50: > 100 µM (inactive)
SNB-75
  GI50: 23.8 µM (inactive)
SW-620
  GI50: > 100 µM (inactive)
T47D
  GI50: > 100 µM (inactive)
TK-10
  GI50: > 100 µM (inactive)
U-251
  GI50: > 100 µM (inactive)
UACC-257
  GI50: > 100 µM (inactive)
UACC-62
  GI50: > 100 µM (inactive)
UO-31
  GI50: > 100 µM (inactive)

## C/C1=C/C2=CC(C)C[C@@H]2C(=O)[C@]2(C)C(=O)CC(C)(C)[C@H]2CC1=O (stereo partly drawn)
786-0
  GI50: > 50 µM (inactive)
A498
  GI50: > 50 µM (inactive)
A549
  GI50: > 50 µM (inactive)
ACHN
  GI50: > 50 µM (inactive)
BT-549
  GI50: > 50 µM (inactive)
CAKI-1
  GI50: > 50 µM (inactive)
CCRF-CEM
  GI50: 15 µM (inactive)
COLO 205
  GI50: > 50 µM (inactive)
DU-145
  GI50: > 50 µM (inactive)
EKVX
  GI50: > 50 µM (inactive)
HCC 2998
  GI50: > 50 µM (inactive)
HCT-116
  GI50: > 50 µM (inactive)
HCT-15
  GI50: > 50 µM
HL-60
  GI50: 9.73 µM (inactive)
HOP-92
  GI50: > 50 µM (inactive)
HT-29
  GI50: > 50 µM (inactive)
Hs-578T
  GI50: > 50 µM (inactive)
IGROV-1
  GI50: > 50 µM (inactive)
K562
  GI50: 32.3 µM (inactive)
KM12
  GI50: > 50 µM (inactive)
LOX IMVI
  GI50: > 50 µM (inactive)
M14
  GI50: > 50 µM (inactive)
MCF7
  GI50: > 50 µM (inactive)
MDA-MB-231
  GI50: > 50 µM (inactive)
MDA-MB-435
  GI50: > 50 µM (inactive)
MDA-N
  GI50: > 50 µM (inactive)
MOLT-4
  GI50: > 50 µM (inactive)
Malme-3M
  GI50: > 50 µM (inactive)
NCI-H226
  GI50: > 50 µM (inactive)
NCI-H23
  GI50: > 50 µM (inactive)
NCI-H460
  GI50: > 50 µM (inactive)
NCI-H522
  GI50: > 50 µM (inactive)
NCI/ADR-RES
  GI50: > 50 µM (inactive)
OVCAR-3
  GI50: > 50 µM (inactive)
OVCAR-4
  GI50: > 50 µM (inactive)
OVCAR-5
  GI50: > 50 µM (inactive)
OVCAR-8
  GI50: > 50 µM (inactive)
PC-3
  GI50: > 50 µM (inactive)
RPMI-8226
  GI50: 34.8 µM (inactive)
SF-268
  GI50: > 50 µM (inactive)
SF-295
  GI50: > 50 µM (inactive)
SF-539
  GI50: > 50 µM (inactive)
SK-MEL-2
  GI50: > 50 µM (inactive)
SK-MEL-5
  GI50: > 50 µM (inactive)
SK-OV-3
  GI50: > 50 µM (inactive)
SN12C
  GI50: > 50 µM (inactive)
SNB-19
  GI50: > 50 µM (inactive)
SNB-75
  GI50: > 50 µM (inactive)
SW-620
  GI50: > 50 µM (inactive)
T47D
  GI50: > 50 µM (inactive)
TK-10
  GI50: > 50 µM (inactive)
U-251
  GI50: > 50 µM (inactive)
UACC-257
  GI50: > 50 µM (inactive)
UACC-62
  GI50: > 50 µM (inactive)
UO-31
  GI50: > 50 µM (inactive)

Source: ChEMBL document CHEMBL1201862, “PubChem BioAssay data set” (2004)
